Reference: PMC8617944, “Preclinical Pharmacokinetics and Acute Toxicity in Rats of 5-{[(2E)-3-Bromo-3-carboxyprop-2-enoyl]amino}-2-hydroxybenzoic Acid: A Novel 5-Aminosalicylic Acid Derivative with Potent Anti-Inflammatory Activity” (Molecules, 2021)
Entries after “also recorded” stand apart in the source; their conditions may differ. Like-named read-outs stand apart in the source and are kept apart here.

Tests used:
[1] = Acute toxicity, up-and-down OECD method (Guideline 425); type: in vivo; details: both sexes, rat, in vivo, Wistar rats, read-out: Median lethal dose (LD50)
Experimental: (§1) For all experiments, rats were allowed to acclimatize to the lab conditions during one week prior to undergoing assays. For the pharmacokinetic studies, animals were randomly divided into three groups (n = 6, body weight 300 ± 20 g). Eight female rats were employed in the up-and-down acute toxicity procedure. The animals were fasted for 8 h before and 4 h after drug administration but always given free access to water.
(§2) If the first animal dies, the second animal is given a lower dose. A dose progression factor of 3.2 can be used. […] The animals were monitored for 14 days post-dosing and then sacrificed. The LD50 values were calculated with AOTStatPgm.

Wistar rats = test: as above; type: in vivo
Experimental: as §1, §2

[2] = Stability of C1 in rat plasma (RP-HPLC); type: in vitro ADME; details: for Difference at 12 h (%) / Difference at 24 h (%) / Difference at 48 h (%): rat plasma
Experimental: C1 was quantified in a liquid chromatograph Agilent 1260 Infinity Series (Agilent Technologies, Palo Alto, CA, USA) equipped with a quaternary pump delivery system (G1311B), robotic autosampler (G1316A), column thermostat (G1316A), and a multi-wavelength UV detector (G1315C). The results were analyzed with OpenLab CDS EZChrom. Separation was performed on a Zorbax SB-Phenyl column (5 µm, 4.6 × 150 mm, Agilent Technologies, Palo Alto, CA, USA) and UV detection was carried out at 305 nm. The column temperature was maintained at 25 °C, and the injection volume was 10 μL. The mobile phase consisted of a mixture of (A) acetonitrile, (B) methanol, and (C) water at a ratio of 50% A, 10% B, and 40% C, at a flow rate of 1.0 mL/min. The total analysis time for each sample was 5.0 min when using an isocratic elution. It was not necessary to equilibrate between each injection.
In addition, the potential interference of heparin, ketamine, and xylazine was investigated. Method specificity was assessed by the values of peak identity and purity of C1. A peak purity angle that is less than the peak threshold angle is an indication of spectral homogeneity or purity of C1. Stability of C1 in plasma was evaluated in triplicate using the quality control samples at four concentrations. Samples were stored at 25 °C for 12, 24, and 48 h (short-term stability), and three freeze-thaw cycles at −20 to +25 °C for 12, 24, and 48 h. […] The concentration of C1 after each storage period was compared to the initial concentration, which was determined for freshly prepared samples [57, 59].

[3] = Plasma protein binding assay (ultrafiltration, RP-HPLC); type: in vitro ADME, Wistar rats; details: rat plasma
Experimental: Different quantities of C1 stock solution at 10 mg/mL were spiked into 600 µL of freshly obtained blank rat plasma to give a final concentration of 1, 5, 10, and 20 µg/mL. The resulting samples were incubated at 37 °C for 4 h. After incubation, an aliquot of 100 µL was removed to determine the total concentration, and another aliquot of 500 µL was transferred to a 10 kD cut-off ultrafiltration device (Millipore Corporation, Burlington, MA, USA). Subsequently, samples were centrifuged at 2000× g and 37 °C for 2 h. The free drug concentration of C1 was measured by evaluating 100 µL of ultrafiltrate with RP-HPLC, interpolating the main areas of the samples into a standard curve constructed with known amounts of C1. The percentage of protein binding was calculated with the following formula (1). Protein binding ratio (%) = […](1)

[4] = Stability of stock solutions; type: physicochemical; details: 1000 μg/mL in acetonitrile-methanol (50:50, v/v), 2–4 °C
Experimental: Six stock solutions at 1000 μg/mL of C1 were prepared by dissolving 10 mg in a mixture of acetonitrile-methanol (50:50, v/v), adjusting the volume in a volumetric flask of 10 mL and storing the final solution at 2–4 °C. […] Calibration standards were prepared daily from the stock solution at concentrations of 0.1, 0.5, 1, 5, 10, 50, and 100 μg/mL, and calibration curves were constructed in triplicate by plotting known concentrations of the standard versus the detector response area (File S4).

[5] = design: method as in ref 32 = [32]; doi:10.1016/j.arabjc.2016.12.026; 32. Cabrera Pérez L.C. Gutiérrez Sánchez M. Mendieta Wejebe J.E. Hernández Rodríguez M. Fragoso Vázquez M.J. Salazar J.R. Correa Basurto J. Padilla Martínez I.I. Rosales Hernández M.C. Novel 5-aminosa; details: Osiris Property Server Explorer; cited from earlier work
[6] = refrigeration (4 °C), 0.1 µg/mL
[7] = refrigeration (4 °C), 0.5 µg/mL
[8] = refrigeration (4 °C), 100 µg/mL
[9] = room temperature (25 °C), 0.1 µg/mL, difference to nominal concentration
[10] = room temperature (25 °C), 0.5 µg/mL
[11] = room temperature (25 °C), 10 µg/mL
[12] = room temperature (25 °C), 100 µg/mL
[13] = three freeze–thaw cycles (−20 to +25 °C), 0.1 µg/mL
[14] = three freeze–thaw cycles (−20 to +25 °C), 0.5 µg/mL
[15] = three freeze–thaw cycles (−20 to +25 °C), 10 µg/mL
[16] = three freeze–thaw cycles (−20 to +25 °C), 100 µg/mL

Work on `O=C(/C=C(/Br)C(=O)O)Nc1ccc(O)c(C(=O)O)c1` [Compound C1, 5-{[(2E)-3-bromo-3-carboxyprop-2-enoyl]amino}-2-hydroxybenzoic acid] yielded an LD50 at 14 days ([1]; ip) greater than 1100 mg/kg, an LD50 at 14 days ([1]; po) greater than 2000 mg/kg and a GHS category (Wistar rats; i.p. route) of 4. For the same compound, the “macroscopic changes at necropsy” value (Wistar rats; liver, small intestine, colon, heart, spleen, stomach, kidneys) was “no macroscopic changes were observed; also recorded: non-macroscopic changes”, the GHS category (Wistar rats; p.o. route) was 5 and the signs of toxicity (Wistar rats; p.o. route, 14 days) was “did not show any signs of apparent toxicity”. The “stability in rat plasma” value ([2]; 4 °C) was “up to 72 h at 4 °C”, the “stability in rat plasma” value ([2]; 25 °C) was “stable in rat plasma stored up to 48 h at 25 °C” and the “Difference at 12 h (%)” value [2, 6] was 5.1%. For the same compound, the “Difference at 24 h (%)” value [2, 6] was 14.0%, the “Difference at 48 h (%)” value [2, 6] was 4.3% and the “Difference at 12 h (%)” value [2, 7] was 4.0%. The “Difference at 24 h (%)” value [2, 7] was 3.6%, the “Difference at 48 h (%)” value [2, 7] was 5.3% and the “Difference at 12 h (%)” value ([2]; refrigeration (4 °C), 10 µg/mL) was 10.1%. The “Difference at 24 h (%)” value ([2]; refrigeration (4 °C), 10 µg/mL) was 13.1%, the “Difference at 48 h (%)” value ([2]; refrigeration (4 °C), 10 µg/mL) was 9.3% and the “Difference at 12 h (%)” value [2, 8] was 1.2%. The “Difference at 24 h (%)” value [2, 8] was 0.2%, the “Difference at 48 h (%)” value [2, 8] was 5.2% and the “Difference at 12 h (%)” value [2, 9] was 10.7%. The “Difference at 24 h (%)” value [2, 9] was 3.2%, the “Difference at 48 h (%)” value [2, 9] was 3.8% and the “Difference at 12 h (%)” value [2, 10] was 3.2%. The “Difference at 24 h (%)” value [2, 10] was 7.8%, the “Difference at 48 h (%)” value [2, 10] was 4.1% and the “Difference at 12 h (%)” value [2, 11] was 9.5%. The “Difference at 24 h (%)” value [2, 11] was 6.5%, the “Difference at 48 h (%)” value [2, 11] was 3.7% and the “Difference at 12 h (%)” value [2, 12] was 0.5%. The “Difference at 24 h (%)” value [2, 12] was 6.5%, the “Difference at 48 h (%)” value [2, 12] was 5.4% and the “Difference at 12 h (%)” value [2, 13] was 5.1%. For the same compound, the “Difference at 24 h (%)” value [2, 13] was 1.76%, the “Difference at 48 h (%)” value [2, 13] was 3.4% and the “Difference at 12 h (%)” value [2, 14] was 0.1%. The “Difference at 24 h (%)” value [2, 14] was 0.3%, the “Difference at 48 h (%)” value [2, 14] was 1.0% and the “Difference at 12 h (%)” value [2, 15] was 0.7%. The “Difference at 24 h (%)” value [2, 15] was 1.2%, the “Difference at 48 h (%)” value [2, 15] was 3.2% and the “Difference at 12 h (%)” value [2, 16] was 0.1%. The “Difference at 24 h (%)” value [2, 16] was 0.6%, the “Difference at 48 h (%)” value [2, 16] was 2.0% and the “stability in rat plasma” value ([2]; three freeze–thaw cycles) was “stable before the three freeze–thaw cycles”. For the same compound, the fraction unbound at 4 h, 1 µg/mL ([3]; Wistar, 1 µg/mL, read-out: Percentage of Unbound Fraction ± SD (%)) was 0.963 ± 0.014, the fraction unbound at 4 h, 5 µg/mL ([3]; Wistar, 5 µg/mL, read-out: Percentage of Unbound Fraction ± SD (%)) was 0.942 ± 0.024 and the fraction unbound at 4 h, 10 µg/mL ([3]; Wistar, 10 µg/mL, read-out: Percentage of Unbound Fraction ± SD (%)) was 0.934 ± 0.015. The fraction unbound at 4 h, 20 µg/mL ([3]; Wistar, 20 µg/mL, read-out: Percentage of Unbound Fraction ± SD (%)) was 0.948 ± 0.023, the fraction unbound at 4 h ([3]; Wistar, 1 to 20 μg/mL) was 0.934 to 0.963 and the “Percentage of Bound Fraction ± SD (%)” value ([3]; 1 µg/mL) was 3.7 ± 1.1%. The “Percentage of Bound Fraction ± SD (%)” value ([3]; 5 µg/mL) was 5.8 ± 2.4%, the “Percentage of Bound Fraction ± SD (%)” value ([3]; 10 µg/mL) was 6.6 ± 1.5% and the “Percentage of Bound Fraction ± SD (%)” value ([3]; 20 µg/mL) was 5.2 ± 2.3%. The “stability of stock solutions” value [4] was “stable for three months” and the predicted toxicity index [5] was “low toxicity index”.
